Measurements published in PubChem BioAssay (NCI).
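1) Cells in 96-well plates. 2) Compound, 48 h, 5 concentrations. 3) Linear interpolation between surrounding doses. 4) Unreached endpoint = highest concentration. TGI marks complete inhibition of growth.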

What was measured:
Test in all cases: inhibition of tumour cell growth, NCI panel, 48 h
786-0 renal = system: 786-0 renal
A498 renal = system: A498 renal
A549 NSCLC = system: A549 NSCLC
ACHN renal = system: ACHN renal
BT-549 breast = system: BT-549 breast
CAKI-1 renal = system: CAKI-1 renal
CCRF-CEM leukemia = system: CCRF-CEM leukemia
COLO 205 colon = system: COLO 205 colon
DLD-1 colon = system: DLD-1 colon
DMS 114 small cell lung = system: DMS 114 small cell lung
DMS 273 small cell lung = system: DMS 273 small cell lung
DU-145 prostate = system: DU-145 prostate
EKVX NSCLC = system: EKVX NSCLC
HCC-2998 colon = system: HCC-2998 colon
HCT-116 colon = system: HCT-116 colon
HCT-15 colon = system: HCT-15 colon
HL-60(TB) leukemia = system: HL-60(TB) leukemia
HOP-62 NSCLC = system: HOP-62 NSCLC
HOP-92 NSCLC = system: HOP-92 NSCLC
HS 578T breast = system: HS 578T breast
HT29 colon = system: HT29 colon
IGROV1 ovarian = system: IGROV1 ovarian
K-562 leukemia = system: K-562 leukemia
KM12 colon = system: KM12 colon
KM20L2 colon = system: KM20L2 colon
LOX IMVI melanoma = system: LOX IMVI melanoma
LXFL 529 NSCLC = system: LXFL 529 NSCLC
M14 melanoma = system: M14 melanoma
MALME-3M melanoma = system: MALME-3M melanoma
MCF7 breast = system: MCF7 breast
MDA-MB-231 breast = system: MDA-MB-231 breast
MDA-MB-435 = system: MDA-MB-435
MOLT-4 leukemia = system: MOLT-4 leukemia
NCI-H226 lung = system: NCI-H226 lung
NCI-H23 lung = system: NCI-H23 lung
NCI-H460 lung = system: NCI-H460 lung
NCI-H522 lung = system: NCI-H522 lung
OVCAR-3 ovarian = system: OVCAR-3 ovarian
OVCAR-4 ovarian = system: OVCAR-4 ovarian
OVCAR-5 ovarian = system: OVCAR-5 ovarian
OVCAR-8 ovarian = system: OVCAR-8 ovarian
PC-3 prostate = system: PC-3 prostate
RPMI-8226 leukemia = system: RPMI-8226 leukemia
RXF 393 renal = system: RXF 393 renal
RXF-631 renal = system: RXF-631 renal
SF-268 CNS = system: SF-268 CNS
SF-295 CNS = system: SF-295 CNS
SF-539 CNS = system: SF-539 CNS
SK-MEL-2 melanoma = system: SK-MEL-2 melanoma
SK-MEL-28 melanoma = system: SK-MEL-28 melanoma
SK-MEL-5 melanoma = system: SK-MEL-5 melanoma
SK-OV-3 ovarian = system: SK-OV-3 ovarian
SN12C renal = system: SN12C renal
SNB-19 CNS = system: SNB-19 CNS
SNB-75 CNS = system: SNB-75 CNS
SNB-78 CNS = system: SNB-78 CNS
SR leukemia = system: SR leukemia
SW-620 colon = system: SW-620 colon
T-47D breast = system: T-47D breast
TK-10 renal = system: TK-10 renal
U251 CNS = system: U251 CNS
UACC-257 melanoma = system: UACC-257 melanoma
UACC-62 melanoma = system: UACC-62 melanoma
UO-31 renal = system: UO-31 renal
XF 498 CNS = system: XF 498 CNS
HOP-18 NSCLC = system: HOP-18 NSCLC
M19-MEL melanoma = system: M19-MEL melanoma

## C=C1C(=O)OC2/C=C(\COC(C)=O)CCC(OC(C)=O)C3=CC(OC3=O)C12 (stereo not drawn)
786-0 renal
  TGI: 20.9 µM
A498 renal
  TGI: 34.1 µM
A549 NSCLC
  TGI: 43 µM
ACHN renal
  TGI: 9.13 µM
BT-549 breast
  TGI: 22.6 µM
CAKI-1 renal
  TGI: 10.1 µM
CCRF-CEM leukemia
  TGI: 4.63 µM
COLO 205 colon
  TGI: 6.54 µM
DLD-1 colon
  TGI: 9.92 µM
DMS 114 small cell lung
  TGI: 3.18 µM
DMS 273 small cell lung
  TGI: 21.7 µM
DU-145 prostate
  TGI: > 100 µM
EKVX NSCLC
  TGI: 34.3 µM
HCC-2998 colon
  TGI: 29.2 µM
HCT-116 colon
  TGI: 6.85 µM
HCT-15 colon
  TGI: 7.76 µM
HL-60(TB) leukemia
  TGI: > 20.3 µM
HOP-62 NSCLC
  TGI: 38.8 µM
HOP-92 NSCLC
  TGI: 12.5 µM
HS 578T breast
  TGI: 52.8 µM
HT29 colon
  TGI: 15.8 µM
IGROV1 ovarian
  TGI: > 56.3 µM
K-562 leukemia
  TGI: 7.63 µM
KM12 colon
  TGI: 22.1 µM
KM20L2 colon
  TGI: 14.3 µM
LOX IMVI melanoma
  TGI: 19 µM
LXFL 529 NSCLC
  TGI: 3.56 µM
M14 melanoma
  TGI: 10 µM
MALME-3M melanoma
  TGI: 4.41 µM
MCF7 breast
  TGI: 15.5 µM
MDA-MB-231 breast
  TGI: 41.7 µM
MDA-MB-435
  TGI: 32.9 µM
MOLT-4 leukemia
  TGI: 5.74 µM
NCI-H226 lung
  TGI: 46.4 µM
NCI-H23 lung
  TGI: 20.7 µM
NCI-H460 lung
  TGI: 37.8 µM
NCI-H522 lung
  TGI: 1.14 µM
OVCAR-3 ovarian
  TGI: 12.4 µM
OVCAR-4 ovarian
  TGI: 52 µM
OVCAR-5 ovarian
  TGI: 33.3 µM
OVCAR-8 ovarian
  TGI: 9.6 µM
PC-3 prostate
  TGI: 30.5 µM
RPMI-8226 leukemia
  TGI: > 100 µM
RXF 393 renal
  TGI: 3.28 µM
RXF-631 renal
  TGI: 48 µM
SF-268 CNS
  TGI: 50 µM
SF-295 CNS
  TGI: 32.6 µM
SF-539 CNS
  TGI: 16.4 µM
SK-MEL-2 melanoma
  TGI: 14.7 µM
SK-MEL-28 melanoma
  TGI: 11.6 µM
SK-MEL-5 melanoma
  TGI: 26.7 µM
SK-OV-3 ovarian
  TGI: 28.4 µM
SN12C renal
  TGI: 18.9 µM
SNB-19 CNS
  TGI: 36.3 µM
SNB-75 CNS
  TGI: 35.6 µM
SNB-78 CNS
  TGI: 9.55 µM
SR leukemia
  TGI: 16.1 µM
SW-620 colon
  TGI: 4.47 µM
T-47D breast
  TGI: 53.4 µM
TK-10 renal
  TGI: 15.4 µM
U251 CNS
  TGI: 33.9 µM
UACC-257 melanoma
  TGI: 6.65 µM
UACC-62 melanoma
  TGI: 17.6 µM
UO-31 renal
  TGI: 35.5 µM
XF 498 CNS
  TGI: 5.33 µM

## COc1ccc2nc(NC(=O)C(=O)C(C#N)c3ccc([N+](=O)[O-])cc3)sc2c1 (stereo not drawn)
786-0 renal
  TGI: > 100 µM
A549 NSCLC
  TGI: > 100 µM
ACHN renal
  TGI: > 100 µM
CAKI-1 renal
  TGI: > 100 µM
COLO 205 colon
  TGI: > 100 µM
DLD-1 colon
  TGI: > 100 µM
DMS 114 small cell lung
  TGI: > 100 µM
DMS 273 small cell lung
  TGI: > 100 µM
EKVX NSCLC
  TGI: > 100 µM
HCC-2998 colon
  TGI: > 100 µM
HCT-116 colon
  TGI: > 100 µM
HCT-15 colon
  TGI: > 100 µM
HOP-18 NSCLC
  TGI: > 100 µM
HOP-62 NSCLC
  TGI: > 100 µM
HOP-92 NSCLC
  TGI: > 100 µM
HT29 colon
  TGI: > 100 µM
IGROV1 ovarian
  TGI: > 100 µM
K-562 leukemia
  TGI: > 100 µM
KM12 colon
  TGI: > 100 µM
KM20L2 colon
  TGI: > 100 µM
LOX IMVI melanoma
  TGI: > 100 µM
LXFL 529 NSCLC
  TGI: > 100 µM
M14 melanoma
  TGI: > 100 µM
M19-MEL melanoma
  TGI: > 100 µM
MALME-3M melanoma
  TGI: > 100 µM
MOLT-4 leukemia
  TGI: > 100 µM
NCI-H226 lung
  TGI: > 100 µM
NCI-H23 lung
  TGI: > 100 µM
NCI-H460 lung
  TGI: > 100 µM
NCI-H522 lung
  TGI: > 100 µM
OVCAR-3 ovarian
  TGI: > 100 µM
OVCAR-4 ovarian
  TGI: > 100 µM
OVCAR-5 ovarian
  TGI: > 100 µM
OVCAR-8 ovarian
  TGI: > 100 µM
RPMI-8226 leukemia
  TGI: > 100 µM
RXF 393 renal
  TGI: > 100 µM
SF-268 CNS
  TGI: > 100 µM
SF-295 CNS
  TGI: > 100 µM
SF-539 CNS
  TGI: > 100 µM
SK-MEL-2 melanoma
  TGI: > 100 µM
SK-MEL-28 melanoma
  TGI: > 100 µM
SK-MEL-5 melanoma
  TGI: > 100 µM
SK-OV-3 ovarian
  TGI: > 100 µM
SN12C renal
  TGI: > 100 µM
SNB-19 CNS
  TGI: > 100 µM
SNB-75 CNS
  TGI: > 100 µM
SNB-78 CNS
  TGI: > 100 µM
SW-620 colon
  TGI: > 100 µM
TK-10 renal
  TGI: > 100 µM
U251 CNS
  TGI: > 100 µM
UACC-257 melanoma
  TGI: > 100 µM
UACC-62 melanoma
  TGI: > 100 µM
UO-31 renal
  TGI: > 100 µM
